The record followed here is US12527782B2, “Use of hexokinase 2/mitochondria-detaching compounds for treating hexokinase-2 (HK2)-expressing cancers” (Vidac Pharma Ltd., priority 2016, dated 2026).

SMILES strings stand for the structures. Like-named read-outs stand apart in the source and are kept apart here. A value given as a limit tells only on which side of the number the result lay.

One experiment deals with Colon CXF 243. Description: Colony forming assay (CFA), CXF 243. It is filed as cell-based, human. To be noted: PDX/CFA. As for the experimental part:
(§1) CFA was performed by Charles River Laboratories (Freiburg, Germany) in 96-well plate format according to a modified two-layer soft agar assay. The origin of the tumor xenografts has been described (Fiebig et al. 1989, incorporated herein by reference). The list of tumors used in this study is detailed in Table 1.

The next experiment concerns Head & Neck HNXF 536. The experiment can be described thus: CFA, HNXF 536. The experiment is classed as cell-based, human. The note with it: PDX/CFA. The procedure: as §1
The test system of experiment [1] is Leukemia (AML) LEXFAM NOMO-1. The experiment can be described thus: CFA, LEXFAM NOMO-1. The experiment is classed as cell-based, human. The note with it: Cell line/CFA. As for the experimental part:
as §1

Experiment [2] relates to Leukemia (AML) LEXFAM KG-1a. Description: CFA, LEXFAM KG-1a. The experiment is classed as cell-based, human. The note with it: Cell line/CFA. The procedure: as §1
For experiment [3], the system named is Leukemia (ALL) LEXFAL MOLT-4. Description: CFA, LEXFAL MOLT-4. It is filed as cell-based, human. The note with it: Cell line/CFA. As for the experimental part: as §1
Experiment [4] has as its system Leukemia (BCLL) LEXFCL MEC-1. Description: CFA, LEXFCL MEC-1. It is filed as cell-based, human. To be noted: Cell line/CFA. As for the experimental part: as §1
Experiment [5] relates to Lymphoma (Non-Hodgkin) LYXFNH HH (CTCL cell line HH). The experiment can be described thus: CFA / 3D clonogenic assay, LYXFNH HH. The experiment is classed as cell-based, human. To be noted: for IC50: CTCL cell line HH. As for the experimental part: as §1
The cell lines tested were from a large collection of patient-derived (PDX) and cell line-derived (CDX) human tumor xenografts growing subcutaneously in immunodeficient nude mice (Oncotest GmbH, a Charles River Division). The majority of the xenografts have been directly transplanted from patients and passaged in nude mice. The xenografts retain most of the characteristics of the parental patient tumors including histology and sensitivity to anti-cancer drugs, and efficacy tests in tumor-bearing nude mice largely replicate the response of the donor patient to standard anti-cancer drugs. The cell lines were from publicly available cell lines, including cell lines derived from solid tumors and hematological malignancies. In the clonogenic assay, the capacity of tumor cells for anchorage-independent growth was investigated as colony formation in soft agar in the presence and absence of test compounds. For the assay, tumor cells were harvested from in vitro culture, or tumor cell suspensions were prepared directly from human tumor xenografts growing in nude mice. The cell suspensions also contained tumor stem cells, which are believed to mediate the metastatic and infiltrative potential of a tumor. […]
Formula C was investigated for antitumor potency and tumor type selectivity ex vivo in 11 human tumor models (5 tumor cell lines, 6 xenograft-derived cell suspensions) of various histotypes. Tests were carried out using a 3D clonogenic assay in 96-well format using an image based read-out.
The clonogenic assay was carried out in a 96 well plate format using ultra low attachment plates. […] Cultures were incubated at 37° C. and 7.5% CO2 in a humidified atmosphere for 8 to 14 days and monitored closely for colony growth using an inverted microscope. […]

In the next experiment the test system is Pancreas PAXF 736. Description: CFA, PAXF 736. The note with it: PDX/CFA. The experiment is classed as cell-based, human. The procedure: as §1
In a further experiment the test system is Kidney RXF 1220. The experiment can be described thus: CFA, RXF 1220. To be noted: PDX/CFA. The experiment is classed as cell-based, human. The procedure:
as §1

Experiment [6] deals with Cutanous T cell lymphoma MyLa. The experiment can be described thus: CFA, MyLa. The experiment is classed as cell-based, human. To be noted: Cell line/CFA. As for the experimental part: as §1
The next experiment deals with A431 cells. Description: Apoptosis: cytochrome C in mitochondrial fraction (WB), A431 cells. To be noted: within 2 hours of treatment, WB semi-quantification. The experiment is classed as cell-based, human. The procedure:
Antibodies used: anti-rabbit HK1 (C-20245) and HK2 (C-28765) from CST (Danvers, MA), anti-rabbit PPIA (ab41684, Abcam), anti-rabbit TIM22 (14927-1-AP, Proteintech Group Inc., Rosemont, IL), anti-rabbit Cytochrome C (PA1118, Boster Biological Technology, Pleasanton, CA). Detection was performed using secondary antibodies: peroxidase-conjugated Affinipure goat anti-rabbit IgG (H+L) or goat anti-mouse IgG (H+L) (111-035-003 and 115-035-003, Jackson ImmunoResearch, West Grove, PA), and development was using the ECL kit WesternBright™ ECL (K-12045-D10, Advansta, Menlo Park, California, USA).
Apoptosis induction was determined by semi-quantification of cytochrome C levels in the mitochondrial fraction analyzed by WB, following 2 hours of treatment with Formula C in A431 cells. Cleaved caspase-3 levels were analyzed following 6 hours of Formula C treatment in A431 cells, using PathScan® Cleaved Caspase-3 Sandwich ELISA kit (CST, Danvers, MA).

The subject of another experiment is AK lesions. The experiment can be described thus: Phase 2a in subjects with actinic keratosis, efficacy (lesion count). It is filed as in vivo, human. The procedure: The Phase 2 clinical trial was a multiple-center randomized, double-blind, placebo-controlled, parallel-cohorts study to evaluate the efficacy, safety, tolerability, and pharmacokinetics of once-daily application of topical Formula C ointment (QD 200 mg) for 28 days in subjects with actinic keratosis. Subjects were followed for one or two months after they completed treatment (through day 56 or day 84). The primary and exploratory efficacy endpoints for the study were reduction in the number of lesions on days 56 and 84, respectively. Subjects were randomly assigned in a double-blind fashion to one of three parallel treatment cohorts (5%, or 10% Formula C, or placebo) at a ratio of 1:1:1. To qualify for the study, subjects aged 18 (inclusive) or older must have had 4-8 discrete Grade 1 or 2 AK lesions within a 25-centimeter squared area of the skin of their scalp or face. The study enrolled 93 subjects in the US and Israel.

By IC50 is commonly meant the point on the concentration scale where inhibition reaches its midpoint. Take `CC/C=C\CC1C(=O)CCC1CC(=O)Oc1cccc2cccnc12` (centres unmarked) [Formula C]: the IC50 in the experiment with Colon CXF 243 was found to be 1760 nM; in the experiment with Head & Neck HNXF 536, 1440 nM; in experiment [1], 1420 nM; in experiment [2], 1920 nM; in experiment [3], 2280 nM; in experiment [4], 1160 nM. Further, the IC50 in [5] (clonogenic assay in soft agar, read-out: relative IC50, colony formation) is 1220 nM; in experiment [5] (clonogenic assay, concentration at T/C=50%, read-out: absolute IC50, colony formation), 1200 nM; in the experiment on Pancreas PAXF 736, 1740 nM; with Kidney RXF 1220, 6330 nM; in experiment [6], below 1000 nM. The “test concentration from which pronounced effects were observed” value in experiment [5] (clonogenic assay, cell lines) was at least 3 µM. For the same compound, the “cytochrome C levels in the mitochondrial fraction” value with A431 cells is given as “reduction of cytochrome C levels”. Further, the “mean reduction in total lesion count from baseline on Day 56” value in the experiment on AK lesions (ITT-face subgroup, 10% ointment, adjusted to age and gender, P=0.023 vs Placebo) is 38.8%±36.4%; with AK lesions (full ITT population (face or scalp), 10% ointment QD 200 mg 28 days, adjusted by site, age, gender, treatment field location) it was 32.1%±34.1%. In addition, the “median reduction in total lesion count” value with AK lesions (PP-face subgroup, 10% ointment) is recorded as 50.0%. Further, in the experiment with AK lesions (full Per Protocol (PP) population, 10% ointment), the “median reduction in total lesion count from baseline on Day 56” value was found to be 25.0%.
